Consider 27 molecules from patent US20110257211A1, “Small-Molecule Choline Kinase Inhibitors as Anti-Cancer Therapeutics” (ADVANCED CANCER THERAPEUTICS, LLC, priority 2010, published 2011).

The subject of one data set is K562. As to the kind of experiment: Inhibition of cancer cell proliferation, Alamar Blue assay (K562). The format is cell-based. To be noted: Homo sapiens, Table 2A, Alamar Blue, 72 hours exposure, read-out: IC50s K562. On the procedure: (§1) The ability of the compounds described herein to kill or inhibit the proliferation of cancer cells was measured using the Alamar Blue assay using a 72 hours exposure. Results for different cancer cell lines are shown in, the Table 2 below (hematopoietic cell lines U937 and K562; MDA-MB-231 a breast cancer cell line; and NCI-H82 and Calu-6, two lung cancer cell lines): […]

For another data set, the system named is MDA-MB-231. Put plainly: Inhibition of cancer cell proliferation, Alamar Blue assay (MDA-MB-231). The format is cell-based. To be noted: Homo sapiens, Table 2A, Alamar Blue, 72 hours exposure, read-out: IC50s MDA-MB231. On the procedure: as §1
A further data set deals with U937. Put plainly: Inhibition of cancer cell proliferation, Alamar Blue assay (U937). Format: cell-based. To be noted: Homo sapiens, U-937; Table 2A; Alamar Blue, 72 hours exposure; read-out: IC50s U937. As to the method: as §1
In a further data set the test system is Calu-6. As to the kind of experiment: Inhibition of cancer cell proliferation, Alamar Blue assay (Calu-6). The format is cell-based. To be noted: Homo sapiens, Table 2A, Alamar Blue, 72 hours exposure, read-out: IC50s Calu-6. On the procedure:
as §1

The nature of data set [1]: Microsomal stability in human liver microsomes. Format: in vitro ADME. The source says:
Microsomal stability in vitro in different biologic media and species is ascertained when screening compounds to evaluate the rate at which a compound undergoes metabolism.

The next data set relates to NCI-H82. Put plainly: Inhibition of cancer cell proliferation, Alamar Blue assay (NCI-H82). The format is cell-based. The conditions noted are these: Homo sapiens, Table 2A, Alamar Blue, 72 hours exposure, read-out: IC50s NCI-H82. On the procedure: as §1

The structures appear in SMILES notation.

As to `COc1ccc(-c2nnc(SCC(=O)Nc3cc(C)ccc3F)[nH]2)cc1` [ACT-CK-085, N-(2-Fluoro-5-methyl-phenyl)-2-[5-(4-methoxy-phenyl)-4H-[1,2,4]triazol-3-ylsulfanyl]-acetamide], the IC50 is 4.4 µM in the data set on K562 and 16.3 µM in the data set on MDA-MB-231.
Turning to `CCOc1cccc(-c2nnc(SCC(=O)Nc3cc(C)cc(C)c3)[nH]2)c1` [ACT-CK-141, N-(3,5-Dimethyl-phenyl)-2-[5-(3-ethoxy-phenyl)-4H-[1,2,4]triazol-3-ylsulfanyl]-acetamide], the IC50 with U937 was 49000 nM; with K562 it was 39 µM; with Calu-6 it was 43000 nM; in the data set with MDA-MB-231 it was 88 µM.
As to `CCOc1ccc(-c2nnc(SCC(=O)Nc3cc(OC)ccc3OC)[nH]2)cc1` [ACT-CK-093, N-(2,5-Dimethoxy-phenyl)-2-[5-(4-ethoxy-phenyl)-4H-[1,2,4]triazol-3-ylsulfanyl]-acetamide], the IC50 in the data set with K562 was found to be 6.16 µM; in the data set with MDA-MB-231, 15.7 µM.
Turning to `CCOc1ccc(-c2nnc(SCC(=O)Nc3cc(C)cc(C)c3)[nH]2)cn1` [ACT-CK-143, N-(3,5-Dimethyl-phenyl)-2-[5-(6-ethoxy-pyridin-3-yl)-4H-[1,2,4]triazol-3-ylsulfanyl]-acetamide], the “% Metabolized (mean)” value in data set [1] came out at 34%.
With `Cc1cc(C)cc(NC(=O)CSc2nnc(-c3ccc(O)cc3)[nH]2)c1` [ACT-CK-146, N-(3,5-Dimethyl-phenyl)-2-[5-(4-hydroxy-phenyl)-4H-[1,2,4]triazol-3-ylsulfanyl]-acetamide], the IC50 in the data set with U937 is 34100 nM; in the data set on K562, 31.7 µM; with Calu-6 it was 54000 nM; with MDA-MB-231 it was 91 µM. Further, the “% Metabolized (mean)” value in data set [1] came to 85%.
With `COc1cccc(-c2nnc(SCC(=O)Nc3cc(C)cc(C)c3)[nH]2)c1` [ACT-CK-140, N-(3,5-Dimethyl-phenyl)-2-[5-(3-methoxy-phenyl)-4H-[1,2,4]triazol-3-ylsulfanyl]-acetamide], the IC50 in the data set with U937 worked out at 20400 nM; in the data set on K562, 41 µM; in the data set on Calu-6, 41600 nM; in the data set on MDA-MB-231, 79 µM.
In the case of `CCOc1ccc(-c2nnc(SCC(=O)Nc3ccc(F)cc3F)[nH]2)cc1` [ACT-CK-064, N-(2,4-Difluoro-phenyl)-2-[5-(4-ethoxy-phenyl)-4H-[1,2,4]triazol-3-ylsulfanyl]-acetamide], the results for the IC50 in the data set on K562 and with MDA-MB-231 were 39.5 µM and 70.6 µM, respectively.
On the same counts, the results for `CCCOc1ccc(-c2nnc(SCC(=O)Nc3cc(C)ccc3F)[nH]2)cc1` [ACT-CK-120, N-(2-Fluoro-5-methyl-phenyl)-2-[5-(4-propoxy-phenyl)-4H-[1,2,4]triazol-3-ylsulfanyl]-acetamide] are 43 µM and 9 µM.
As to `Cc1cc(C)cc(NC(=O)CSc2nnc(-c3ccc(OCCO)cc3)[nH]2)c1` [ACT-CK-155, N-(3,5-Dimethyl-phenyl)-2-{5-[4-(2-hydroxy-ethoxy)-phenyl]-4H-[1,2,4]triazol-3-ylsulfanyl}-acetamide], the “% Metabolized (mean)” value in data set [1] is recorded as 69%.
Consider `COc1ccc(-c2nnc(SCC(=O)Nc3cc(F)ccc3C)[nH]2)cc1` [ACT-CK-066, N-(5-Fluoro-2-methyl-phenyl)-2-[5-(4-methoxy-phenyl)-4H-[1,2,4]triazol-3-ylsulfanyl]-acetamide], for which the IC50 with K562 turned out to be 11.4 µM; in the data set with MDA-MB-231, 76.2 µM.
As to `CCOc1ccc(-c2nnc(SCC(=O)Nc3nc(C)cc(C)n3)[nH]2)cc1` [ACT-CK-148, N-(4,6-Dimethyl-pyrimidin-2-yl)-2-[5-(4-ethoxy-phenyl)-4H-[1,2,4]triazol-3-ylsulfanyl]-acetamide], the IC50 stood at 500 nM in the data set with U937; 0.72 µM in the data set with K562; 470 nM in the data set on Calu-6; 29 µM with MDA-MB-231; 8.1 µM in the data set on NCI-H82. Moreover, the “% Metabolized (mean)” value in data set [1] is given as 54%.
For the molecule `CCOc1ccc(-c2nnc(SCC(=O)Nc3cc(C)cc(C)c3)[nH]2)cc1C` [ACT-CK-142, N-(3,5-Dimethyl-phenyl)-2-[5-(4-ethoxy-3-methyl-phenyl)-4H-[1,2,4]triazol-3-ylsulfanyl]-acetamide], the IC50 in the data set on U937 came out at 35 nM; in the data set with K562 it was 0.12 µM; in the data set with Calu-6, 90 nM; with MDA-MB-231, 50 µM. For the same molecule, the “% Metabolized (mean)” value in data set [1] was found to be 99%.
Regarding `COc1ccc(-c2nnc(SCC(=O)Nc3c(F)cccc3F)[nH]2)cc1` [ACT-CK-061, N-(2,6-Difluoro-phenyl)-2-[5-(4-methoxy-phenyl)-4H-[1,2,4]triazol-3-ylsulfanyl]-acetamide], the IC50 in the data set on K562 is 28.1 µM; with MDA-MB-231, more than 100 µM.
On the same counts, the results for `COc1ccc(-c2nnc(SCC(=O)Nc3cccc(C)c3C)[nH]2)cc1` [ACT-CK-070, N-(2,3-Dimethyl-phenyl)-2-[5-(4-methoxy-phenyl)-4H-[1,2,4]triazol-3-ylsulfanyl]-acetamide] are 32.1 µM and 68.2 µM.
Turning to `CCOc1ccc(-c2nnc(SCC(=O)Nc3cc(C)nc(C)c3)[nH]2)cc1` [ACT-CK-151, N-(2,6-Dimethyl-pyridin-4-yl)-2-[5-(4-ethoxy-phenyl)-4H-[1,2,4]triazol-3-ylsulfanyl]-acetamide], the “% Metabolized (mean)” value in data set [1] came to 91%.
For the molecule `Cc1cc(C)cc(NC(=O)CSc2nnc(-c3cc4ccccc4[nH]3)[nH]2)c1` [ACT-CK-124, N-(3,5-Dimethyl-phenyl)-2-[5-(1H-indol-2-yl)-4H-[1,2,4]triazol-3-ylsulfanyl]-acetamide], the figures for the IC50 in the data set on K562 and with MDA-MB-231 were 23 µM and 16 µM, respectively.
On the same counts, the results for `CCOc1ccc(-c2nnc(SCC(=O)Nc3cc(C)ccc3F)[nH]2)cc1` [ACT-CK-071, 2-[5-(4-Ethoxy-phenyl)-4H-[1,2,4]triazol-3-ylsulfanyl]-N-(2-fluoro-5-methyl-phenyl)-acetamide] are 0.81 µM and 40.2 µM.
On to `COc1ccc(-c2nnc(SCC(=O)Nc3ccc(C)cc3C)[nH]2)cc1` [ACT-CK-096], for which the IC50 with K562 is 34 µM; with MDA-MB-231 it was 149 µM.
On the same counts, the results for `CCOc1ccc(-c2nnc(SCC(=O)Nc3ccc(OC)cc3C)[nH]2)cc1` [ACT-CK-087, 2-[5-(4-Ethoxy-phenyl)-4H-[1,2,4]triazol-3-ylsulfanyl]-N-(4-methoxy-2-methyl-phenyl)-acetamide] are 8.86 µM and 10.6 µM.
Regarding `CCOc1ccc(-c2nnc(SCC(=O)Nc3cccc(C)c3)[nH]2)cc1` [ACT-CK-156, 2-[5-(4-Ethoxy-phenyl)-4H-[1,2,4]triazol-3-ylsulfanyl]-N-m-tolyl-acetamide], the IC50 in the data set on U937 is 1100 nM; with K562 it was 3.27 µM; in the data set on Calu-6 it was 1700 nM; in the data set with MDA-MB-231, 7 µM; in the data set with NCI-H82, 1.7 µM.
As to `CCOc1ccc(-c2nnc(SCC(=O)Nc3cc(C)cc(C)n3)[nH]2)cc1` [ACT-CK-147, N-(4,6-Dimethyl-pyridin-2-yl)-2-[5-(4-ethoxy-phenyl)-4H-[1,2,4]triazol-3-ylsulfanyl]-acetamide], the IC50 in the data set on U937 came out at 630 nM; in the data set on K562 it was 0.97 µM; in the data set on Calu-6 it was 740 nM; in the data set on MDA-MB-231, 53 µM. The “% Metabolized (mean)” value in data set [1] is on record as 91%.
Consider `CCOc1ccc(-c2nnc(SCC(=O)Nc3cc(C(F)(F)F)cc(C(F)(F)F)c3)[nH]2)cc1` [ACT-CK-152, N-(3,5-Bis-trifluoromethyl-phenyl)-2-[5-(4-ethoxy-phenyl)-4H-[1,2,4]triazol-3-ylsulfanyl]-acetamide], for which the “% Metabolized (mean)” value in data set [1] is recorded as 47%.
In the case of `CCOc1ccc(-c2nnc(SCC(=O)Nc3ccc(C)cc3C)[nH]2)cc1` [ACT-CK-097, N-(2,4-Dimethyl-phenyl)-2-[5-(4-ethoxy-phenyl)-4H-[1,2,4]triazol-3-ylsulfanyl]-acetamide], the IC50 was determined as 3.78 µM in the data set on K562 and 12 µM in the data set with MDA-MB-231.
Consider `CCCOc1ccc(-c2nnc(SCC(=O)Nc3cc(C)cc(C)c3)[nH]2)cc1` [ACT-CK-118, N-(3,5-Dimethyl-phenyl)-2-[5-(4-propoxy-phenyl)-4H-[1,2,4]triazol-3-ylsulfanyl]-acetamide], for which the IC50 in the data set with K562 worked out at 1.4 µM; in the data set with MDA-MB-231, 5.6 µM.
On the same counts, the results for `CCOc1ccc(-c2nnc(SCC(=O)Nc3cc(F)ccc3C)[nH]2)cc1` [ACT-CK-067, 2-[5-(4-Ethoxy-phenyl)-4H-[1,2,4]triazol-3-ylsulfanyl]-N-(5-fluoro-2-methyl-phenyl)-acetamide] are 1.6 µM and 19.2 µM.
On the same counts, the results for `CCOc1ccc(-c2nnc(SCC(=O)Nc3cccc(C)c3C)[nH]2)cc1` [ACT-CK-076, N-(2,3-Dimethyl-phenyl)-2-[5-(4-ethoxy-phenyl)-4H-[1,2,4]triazol-3-ylsulfanyl]-acetamide] are 14.6 µM and 21.2 µM.
For the molecule `CCCOc1ccc(-c2nnc(SCC(=O)Nc3cc(OC)cc(OC)c3)[nH]2)cc1` [ACT-CK-119, N-(3,5-Dimethoxy-phenyl)-2-[5-(4-propoxy-phenyl)-4H-[1,2,4]triazol-3-ylsulfanyl]-acetamide], the IC50 is 28 µM in the data set with K562 and 11 µM in the data set with MDA-MB-231.
